Test results reported in patent publication US6399833B1, “Process for producing aryl vinyl sulfone solution and use thereof” (Sumitomo Chemical Company, Limited, priority 1998, dated 2002).

Assays:
[1] = Stability of phenyl vinyl sulfone/acetonitrile solution, thermostatic bath at 40° C., analysed by gas chromatography; assay type: physicochemical; details: 30% acetonitrile solution, stainless steel chip, nitrogen
Experimental: About 70 ml of a phenyl vinyl sulfone/acetonitrile solution (phenyl vinyl sulfone concentration, 30%) and a chip of stainless steel (20 mm×25 mm×2 mm) (assuming the storage in a stainless steel vessel) were put in a glass sample tube of 100 ml in volume, which was purged with nitrogen gas and then sealed with a tight stopper, followed by stability tests in a thermostatic bath at 40° C. The concentration of phenyl vinyl sulfone in the phenyl vinyl sulfone/acetonitrile solution was analyzed by gas chromatography.

[2] = Stability of phenyl vinyl sulfone solutions in various solvents, thermostatic bath at 40° C., analysed by gas chromatography; assay type: physicochemical; details: for Retention in DMF solution: N,N-dimethylformamide solution (30%); for Retention in ethanol solution: ethanol solution (10%); for Retention in MIK solution: methyl isobutyl ketone solution (30%); for Retention in MTBE solution: methyl t-butyl ether solution (10%); for Retention in toluene solution: toluene solution (30%)
Experimental: About 35 ml of a phenyl vinyl sulfone solution and a chip of stainless steel (20 mm×25 mm×2 mm) (assuming the storage in a stainless steel vessel) were put in a glass sample tube of 50 ml in volume, which was purged with nitrogen gas and then sealed with a tight stopper, followed by stability tests in a thermostatic bath at 40° C. The results of retention when a toluene solution (concentration, 30%), a methyl isobutyl ketone solution (concentration, 30%), and a methyl t-butyl ether solution (concentration, 10%) were used as the phenyl vinyl sulfone solutions are shown in Table 2.
The concentration of phenyl vinyl sulfone in each solution was analyzed by gas chromatography. In the table, MIK refers to methyl isobutyl ketone; and MTBE, methyl t-butyl ether.
Stability tests were carried out in the same manner as described in Reference Example 3, except that an ethanol solution (concentration, 10%) and an N,N-dimethylformamide solution (concentration, 30%) were used as the phenyl vinyl sulfone solutions. In the table, DMF refers to N,N-dimethylformamide.

[3] = Aldrich Material Safety Data; cited from earlier work

**Q.** Which Retention ([1]; 0 day) does the source give for `C=CS(=O)(=O)c1ccccc1` [phenyl vinyl sulfone] here?
**A.** 100%

**Q.** And the Retention ([1]; 30 days)?
**A.** 100%

**Q.** And the Retention ([1]; 60 days)?
**A.** 99.9%

**Q.** And the Retention ([1]; 90 days)?
**A.** 99.4%

**Q.** And the “Appearance of solution on storage” value ([2]; DMF solution (30%), with the lapse of storage days)?
**A.** yellow coloring was observed

**Q.** And the “Retention in DMF solution” value ([2]; 0 day)?
**A.** 100%

**Q.** And the “Retention in DMF solution” value ([2]; 15 days)?
**A.** 99.0%

**Q.** What about the “Retention in ethanol solution” value ([2]; 0 day) of the same molecule?
**A.** 100%

**Q.** And the “Retention in ethanol solution” value ([2]; 15 days)?
**A.** 83.8%

**Q.** What about the “Retention in MIK solution” value ([2]; 0 day) of the same molecule?
**A.** 100%

**Q.** And the “Retention in MIK solution” value ([2]; 15 days)?
**A.** 99.5%

**Q.** What about the “Retention in MTBE solution” value ([2]; 0 day) of the same molecule?
**A.** 100%

**Q.** What about the “Retention in MTBE solution” value ([2]; 15 days) of the same molecule?
**A.** 100%

**Q.** What about the “Retention in toluene solution” value ([2]; 0 day) of the same molecule?
**A.** 100%

**Q.** What about the “Retention in toluene solution” value ([2]; 15 days) of the same molecule?
**A.** 100%

**Q.** And the Irritation [3]?
**A.** exhibit irritation
